In PubChem BioAssay (NCI) one finds TGI data, which are given here for nine compounds.

Some test systems named below: UO-31 renal; U251 CNS; MOLT-4 leukemia; K-562 leukemia; RPMI-8226 leukemia; A498 renal; SR leukemia; SF-268 CNS; NCI-H23 lung; T-47D breast; EKVX NSCLC; NCI-H460 lung; UACC-62 melanoma; HCT-116 colon; SF-295 CNS; MDA-MB-231 breast; SN12C renal.
What all share (test): inhibition of tumour cell growth, NCI panel, 48 h

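Interpolation was linear, between the two tested concentrations surrounding the appropriate level; five concentrations were tested over 48 hours in 96-well plates. The concentration for full growth arrest is given as TGI.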

Consider `Cc1cc(C)nc(NS(=O)(=O)c2ccc(Nc3nncc(=O)n3N)cc2)n1`, for which the TGI in the assay with UO-31 renal was 33.9 µM; with U251 CNS, 31.5 µM; with MOLT-4 leukemia it was 48.6 µM; with K-562 leukemia, 43.9 µM; with RPMI-8226 leukemia it was 49.8 µM; with A498 renal, over 100 µM. Also, the TGI in the assay on SR leukemia is 42.4 µM; with SF-268 CNS, 39.7 µM; with NCI-H23 lung, 28.6 µM; with T-47D breast it was 38.3 µM; in the assay on EKVX NSCLC, 62.7 µM; in the assay with NCI-H460 lung, over 100 µM. Besides, the TGI is 51.2 µM in the assay on UACC-62 melanoma, 87.8 µM in the assay with HCT-116 colon and over 100 µM with SF-295 CNS.

As for `CCOc1ccc(N=NC2C(=O)N(C(=O)CC(=O)Nc3ccccc3OC)N=C2C)cc1` (stereo not given), the TGI in the assay on UO-31 renal was over 100 µM; with U251 CNS, over 63.4 µM; with MDA-MB-231 breast it was over 51.7 µM; with MOLT-4 leukemia, over 100 µM; in the assay with K-562 leukemia, over 100 µM; with RPMI-8226 leukemia it was over 100 µM. In addition, the TGI in the assay with A498 renal is over 31.6 µM; with SF-268 CNS, 97 µM; in the assay with NCI-H23 lung, over 100 µM; in the assay on T-47D breast, over 100 µM; in the assay on EKVX NSCLC, over 100 µM; in the assay on SN12C renal, over 100 µM. Also, the TGI is over 42.8 µM in the assay on NCI-H460 lung, over 100 µM in the assay on UACC-62 melanoma, over 100 µM in the assay with HCT-116 colon and over 53.8 µM in the assay with SF-295 CNS.

Take `C=CC(Cl)(CBr)CCC(Br)=C(C)C` (stereo not given): the TGI was 37.4 µM in the assay on UO-31 renal; 30.5 µM in the assay with U251 CNS; 37.5 µM in the assay with MDA-MB-231 breast; over 100 µM in the assay with MOLT-4 leukemia; over 100 µM in the assay with K-562 leukemia; 54.5 µM with RPMI-8226 leukemia. The TGI is over 100 µM in the assay with A498 renal; over 100 µM in the assay with SR leukemia; 43.3 µM in the assay on SF-268 CNS; 68.5 µM in the assay with NCI-H23 lung; over 100 µM in the assay on EKVX NSCLC; 33 µM in the assay with SN12C renal. In addition, the TGI was 38 µM in the assay on NCI-H460 lung, 36 µM in the assay with UACC-62 melanoma, 63 µM in the assay with HCT-116 colon and over 100 µM in the assay with SF-295 CNS.

As for `COc1ccc2cc(C(C)C(O)c3cc(F)c(F)c(F)c3F)ccc2c1` (stereo not given), the TGI with UO-31 renal, with U251 CNS, in the assay with MDA-MB-231 breast, in the assay with K-562 leukemia, in the assay on RPMI-8226 leukemia and with A498 renal was over 100 µM throughout. Besides, the TGI in the assay with SF-268 CNS, with NCI-H23 lung, in the assay with T-47D breast, with EKVX NSCLC, in the assay with SN12C renal and in the assay on NCI-H460 lung was over 100 µM each time. Moreover, the TGI with UACC-62 melanoma, in the assay with HCT-116 colon and with SF-295 CNS was over 100 µM in each case.

For the compound `CC(=N/NC(=S)N1CCCCC1)/C(=N\NC(=S)N1CCCCC1)c1ccccc1`, the TGI in the assay with UO-31 renal was 4.03 µM; with U251 CNS, 3.53 µM; with MDA-MB-231 breast it was over 19.8 µM; with MOLT-4 leukemia, over 100 µM; in the assay on K-562 leukemia, over 100 µM; with RPMI-8226 leukemia it was over 100 µM. Besides, the TGI in the assay on A498 renal amounted to 2.65 µM; in the assay with SF-268 CNS, 3.37 µM; in the assay on NCI-H23 lung, 5.16 µM; with T-47D breast it was 3.99 µM; in the assay on EKVX NSCLC, 3.43 µM; in the assay on SN12C renal, 3.43 µM. In addition, the TGI with NCI-H460 lung worked out at 4.48 µM; with UACC-62 melanoma, 3.87 µM; with HCT-116 colon, 5.83 µM; in the assay on SF-295 CNS, 3.82 µM.

In the case of `O=C(/C=C(\O)c1ccc(Cl)cc1)C(=O)N=Nc1c(O)[nH]c2ccc(Br)cc12`, the TGI in the assay with UO-31 renal is over 100 µM; in the assay with U251 CNS, over 100 µM; in the assay on MDA-MB-231 breast, over 100 µM; in the assay on MOLT-4 leukemia, 4.85 µM; in the assay on K-562 leukemia it was 45.8 µM; in the assay on RPMI-8226 leukemia it was 92.3 µM. Further, the TGI with A498 renal was 74.3 µM; in the assay on SF-268 CNS it was over 100 µM; in the assay with NCI-H23 lung, over 100 µM; in the assay on T-47D breast it was over 100 µM; in the assay on EKVX NSCLC, over 100 µM; with SN12C renal it was over 100 µM. The TGI in the assay with NCI-H460 lung, with UACC-62 melanoma, with HCT-116 colon and in the assay with SF-295 CNS was over 100 µM each time.

For the compound `COc1cc(C2c3cc4c(cc3OC(NC3CCCCC3)C2C)OCO4)cc(OC)c1OC` (stereo not given), the TGI in the assay with UO-31 renal is 32.2 µM; in the assay on U251 CNS it was 23.9 µM; in the assay on MDA-MB-231 breast, 2.26 µM; in the assay on MOLT-4 leukemia, over 39 µM; with K-562 leukemia, over 21.5 µM; in the assay with RPMI-8226 leukemia it was 41.8 µM. The TGI was 25 µM in the assay on A498 renal; 28.6 µM in the assay on SF-268 CNS; 11 µM in the assay with NCI-H23 lung; 66.7 µM in the assay with T-47D breast; over 100 µM in the assay on EKVX NSCLC; over 41.9 µM in the assay on SN12C renal. Besides, the TGI in the assay on NCI-H460 lung is over 100 µM; with UACC-62 melanoma, 43.2 µM; in the assay on HCT-116 colon it was 15.5 µM; in the assay on SF-295 CNS, 0.577 µM.

`CCOC(=O)Cc1nnc2c(-c3ccccc3)nc3ccccc3n12`: the TGI with UO-31 renal is over 100 µM; with U251 CNS it was 48.4 µM; in the assay with MDA-MB-231 breast, 45.3 µM; with MOLT-4 leukemia, over 100 µM; with K-562 leukemia it was over 100 µM; with RPMI-8226 leukemia, over 100 µM. The TGI with A498 renal was over 100 µM; with SR leukemia, over 100 µM; with SF-268 CNS, 39.7 µM; in the assay on NCI-H23 lung, over 100 µM; with EKVX NSCLC, 79.8 µM; in the assay with SN12C renal, over 100 µM. The TGI with NCI-H460 lung, in the assay with UACC-62 melanoma and in the assay on HCT-116 colon was over 100 µM each time.

Take `COc1ccc(CN2C[C@H]3[C@@H](CC(=O)O[C@H]3C)CC2=O)cc1`: the TGI in the assay on UO-31 renal, in the assay on U251 CNS, in the assay with MDA-MB-231 breast, in the assay with MOLT-4 leukemia, with K-562 leukemia and with RPMI-8226 leukemia was over 100 µM in each case. Moreover, the TGI with A498 renal, with SR leukemia, with SF-268 CNS, in the assay with NCI-H23 lung, with EKVX NSCLC and in the assay with NCI-H460 lung was over 100 µM each time. Moreover, the TGI in the assay with UACC-62 melanoma, in the assay on HCT-116 colon and in the assay with SF-295 CNS was over 100 µM each time.
